According to ChEMBL document CHEMBL4177608, “Design and synthesis of benzimidazole-based Rho kinase inhibitors for the treatment of glaucoma” (Bioorg Med Chem, 2017):
In brackets after ≈: the same amount, converted by molar mass.

What was measured:
[1] = species on record: Rattus norvegicus; experiment: Reduction in intraocular pressure in Wistar rat model of dexamethasone-induced elevated IOP assessed as change in intraocular pressure in contralateral eye at 1 % w/v after 1 hr by tonometry (reference value: 0%); format: ADME, organism-based; set-up: scale not given: the % may be the effect or the level left; details: in vivo, topical_or_ocular
[2] = species on record: Rattus norvegicus; experiment: Reduction in intraocular pressure in Wistar rat model of dexamethasone-induced elevated IOP assessed as change in intraocular pressure at 1 % w/v after 4 hrs by tonometry (reference value: 0%); format: functional; set-up: scale not given: the % may be the effect or the level left
[3] = species on record: Rattus norvegicus; experiment: Reduction in intraocular pressure in Wistar rat model of dexamethasone-induced elevated IOP assessed as change in intraocular pressure at 1 % w/v after 2.5 hrs by tonometry (reference value: 0%); format: functional; set-up: scale not given: the % may be the effect or the level left
[4] = species on record: Rattus norvegicus; experiment: Reduction in intraocular pressure in Wistar rat model of dexamethasone-induced elevated IOP assessed as change in intraocular pressure at 1 % w/v after 1.5 hrs by tonometry (reference value: 0%); format: functional; set-up: scale not given: the % may be the effect or the level left
[5] = Antioxidant activity assessed as DPPH free radical scavenging activity at 100 ug/ml after 30 mins by spectrophotometric analysis; format: functional
[6] = species on record: Rattus norvegicus; experiment: Reduction in intraocular pressure in Wistar rat model of dexamethasone-induced elevated IOP assessed as change in intraocular pressure in contralateral eye at 1 % w/v after 2 hrs by tonometry (reference value: 0%); format: ADME, organism-based; set-up: scale not given: the % may be the effect or the level left; details: in vivo
[7] = species on record: Rattus norvegicus; experiment: Reduction in intraocular pressure in Wistar rat model of dexamethasone-induced elevated IOP assessed as change in intraocular pressure in contralateral eye at 1 % w/v after 3 hrs by tonometry (reference value: 0%); format: ADME, organism-based; set-up: scale not given: the % may be the effect or the level left; details: in vivo
[8] = species on record: Rattus norvegicus; experiment: Reduction in intraocular pressure in Wistar rat model of dexamethasone-induced elevated IOP assessed as change in intraocular pressure in contralateral eye at 1 % w/v after 4 hrs by tonometry (reference value: 0%); format: ADME, organism-based; set-up: scale not given: the % may be the effect or the level left; details: in vivo
[9] = Antioxidant activity assessed as DPPH free radical scavenging activity at 50 ug/ml after 30 mins by spectrophotometric analysis; format: functional
[10] = species on record: Rattus norvegicus; experiment: Reduction in intraocular pressure in Wistar rat model of dexamethasone-induced elevated IOP assessed as change in intraocular pressure at 1 % w/v after 5 hrs by tonometry (reference value: 0%); format: functional; set-up: scale not given: the % may be the effect or the level left
[11] = species on record: Rattus norvegicus; experiment: Reduction in intraocular pressure in Wistar rat model of dexamethasone-induced elevated IOP assessed as change in intraocular pressure at 1 % w/v after 0.5 hrs by tonometry (reference value: 0%); format: functional; set-up: scale not given: the % may be the effect or the level left
[12] = species on record: Rattus norvegicus; experiment: Reduction in intraocular pressure in Wistar rat model of dexamethasone-induced elevated IOP assessed as onset time for reduction in intraocular pressure at 1 % w/v by tonometry; format: functional
[13] = Antioxidant activity assessed as DPPH free radical scavenging activity at 5 ug/ml after 30 mins by spectrophotometric analysis; format: functional
[14] = species on record: Rattus norvegicus; experiment: Reduction in intraocular pressure in Wistar rat model of dexamethasone-induced elevated IOP assessed as change in intraocular pressure in contralateral eye at 1 % w/v after 0.5 hrs by tonometry (reference value: 0%); format: ADME, organism-based; set-up: scale not given: the % may be the effect or the level left; details: in vivo, topical_or_ocular
[15] = species on record: Rattus norvegicus; experiment: Reduction in intraocular pressure in Wistar rat model of dexamethasone-induced elevated IOP assessed as change in intraocular pressure at 1 % w/v after 2 hrs by tonometry (reference value: 0%); format: functional; set-up: scale not given: the % may be the effect or the level left
[16] = species on record: Rattus norvegicus; experiment: Reduction in intraocular pressure in Wistar rat model of dexamethasone-induced elevated IOP assessed as change in intraocular pressure in contralateral eye at 1 % w/v after 6 hrs by tonometry (reference value: 0%); format: ADME, organism-based; set-up: scale not given: the % may be the effect or the level left; details: in vivo
[17] = species on record: Rattus norvegicus; experiment: Reduction in intraocular pressure in Wistar rat model of dexamethasone-induced elevated IOP assessed as change in intraocular pressure at 1 % w/v after 6 hrs by tonometry (reference value: 0%); format: functional; set-up: scale not given: the % may be the effect or the level left
[18] = Antioxidant activity assessed as DPPH free radical scavenging activity at 200 ug/ml after 30 mins by spectrophotometric analysis; format: functional
[19] = species on record: Rattus norvegicus; experiment: Reduction in intraocular pressure in Wistar rat model of dexamethasone-induced elevated IOP assessed as change in intraocular pressure in contralateral eye at 1 % w/v after 2.5 hrs by tonometry (reference value: 0%); format: ADME, organism-based; set-up: scale not given: the % may be the effect or the level left; details: in vivo
[20] = species on record: Rattus norvegicus; experiment: Reduction in intraocular pressure in Wistar rat model of dexamethasone-induced elevated IOP assessed as change in intraocular pressure in contralateral eye at 1 % w/v after 5 hrs by tonometry (reference value: 0%); format: ADME, organism-based; set-up: scale not given: the % may be the effect or the level left; details: in vivo
[21] = species on record: Rattus norvegicus; experiment: Reduction in intraocular pressure in Wistar rat model of dexamethasone-induced elevated IOP assessed as change in intraocular pressure at 1 % w/v after 3 hrs by tonometry (reference value: 0%); format: functional; set-up: scale not given: the % may be the effect or the level left
[22] = Antioxidant activity assessed as DPPH free radical scavenging activity after 30 mins by spectrophotometric analysis; format: functional
[23] = Antioxidant activity assessed as DPPH free radical scavenging activity at 150 ug/ml after 30 mins by spectrophotometric analysis; format: functional
[24] = species on record: Rattus norvegicus; experiment: Reduction in intraocular pressure in Wistar rat model of dexamethasone-induced elevated IOP assessed as peak effect time for reduction in intraocular pressure at 1 % w/v by tonometry; format: functional, organism-based
[25] = Antioxidant activity assessed as DPPH free radical scavenging activity at 25 ug/ml after 30 mins by spectrophotometric analysis; format: functional
[26] = species on record: Rattus norvegicus; experiment: Reduction in intraocular pressure in Wistar rat model of dexamethasone-induced elevated IOP assessed as change in intraocular pressure at 1 % w/v after 1 hr by tonometry (reference value: 0%); format: functional; set-up: scale not given: the % may be the effect or the level left
[27] = species on record: Rattus norvegicus; experiment: Reduction in intraocular pressure in Wistar rat model of dexamethasone-induced elevated IOP assessed as change in intraocular pressure in contralateral eye at 1 % w/v after 1.5 hrs by tonometry (reference value: 0%); format: ADME, organism-based; set-up: scale not given: the % may be the effect or the level left; details: in vivo
[28] = species on record: Rattus norvegicus; experiment: Reduction in intraocular pressure in Wistar rat model of dexamethasone-induced elevated IOP assessed as reduction in intraocular pressure at peak effect time at 1 % w/v by tonometry; format: functional; set-up: scale not given: the % may be the effect or the level left
[29] = 1-Octanol/water partition coefficient, log P of compound at 2 mg after 24 hrs by spectrophotometry based shake flask method; format: physicochemical

## O=C(CN1CCN(C(c2ccccc2)c2ccccc2)CC1)Nc1nc2ccccc2[nH]1
[1]
  Activity: 1.13%
[2]
  Activity: 7.33%
[3]
  Activity: 12.4%
[4]
  Activity: 10.38%
[5]
  Activity: 53.7%
[6]
  Activity: 5.08%
[7]
  Activity: 3%
[8]
  Activity: 1.53%
[9]
  Activity: 41.5%
[10]
  Activity: 3.67%
[11]
  Activity: 4.37%
[12]
  Time: 0.5 h
[13]
  Activity: 22.1%
[14]
  Activity: 0.77%
[15]
  Activity: 16.47%
[16]
  Activity: 0%
[17]
  Activity: 1.7%
[18]
  Activity: 81.4%
[19]
  Activity: 4%
[20]
  Activity: 0%
[21]
  Activity: 8.17%
[22]
  IC50: 88.68 µg/mL (≈ 208 µM)
[23]
  Activity: 66.6%
[24]
  Tmax: 2.5 h
[25]
  Activity: 32.9%
[26]
  Activity: 5.83%
[27]
  Activity: 3.43%
[28]
  Activity: 51.91%
[29]
  logP at 24 h: 1.89

## O=C(CN1CCN(c2ncccn2)CC1)Nc1nc2ccccc2[nH]1
[1]
  Activity: 1.85%
[2]
  Activity: 5.62%
[3]
  Activity: 11.77%
[4]
  Activity: 10.92%
[5]
  Activity: 46.5%
[6]
  Activity: 3.97%
[7]
  Activity: 0.42%
[8]
  Activity: 0%
[9]
  Activity: 31%
[10]
  Activity: 3.15%
[11]
  Activity: 3.5%
[12]
  Time: 0.5 h
[13]
  Activity: 8.77%
[14]
  Activity: 0.95%
[15]
  Activity: 15.45%
[16]
  Activity: 0%
[17]
  Activity: 0.35%
[18]
  Activity: 81.8%
[19]
  Activity: 2.1%
[20]
  Activity: 0%
[21]
  Activity: 9.1%
[22]
  IC50: 107.77 µg/mL (≈ 319 µM)
[23]
  Activity: 68.4%
[24]
  Tmax: 2 h
[25]
  Activity: 20.4%
[26]
  Activity: 7.42%
[27]
  Activity: 2.05%
[28]
  Activity: 50%
[29]
  logP at 24 h: 1.85

## O=C(CN1CCN(c2ccc([N+](=O)[O-])cc2)CC1)Nc1nc2ccccc2[nH]1
[1]
  Activity: 1.2%
[2]
  Activity: 7.82%
[3]
  Activity: 16%
[4]
  Activity: 7.68%
[5]
  Activity: 51.7%
[6]
  Activity: 4.87%
[7]
  Activity: 4.2%
[8]
  Activity: 1.6%
[9]
  Activity: 44.8%
[10]
  Activity: 4.75%
[11]
  Activity: 3.33%
[12]
  Time: 0.5 h
[13]
  Activity: 16.1%
[14]
  Activity: 0.83%
[15]
  Activity: 11.88%
[16]
  Activity: 0%
[17]
  Activity: 1.2%
[18]
  Activity: 76.7%
[19]
  Activity: 5.23%
[20]
  Activity: 0%
[21]
  Activity: 10.52%
[22]
  IC50: 95.49 µg/mL (≈ 251 µM)
[23]
  Activity: 64.9%
[24]
  Tmax: 2.5 h
[25]
  Activity: 33.9%
[26]
  Activity: 5.85%
[27]
  Activity: 3.5%
[28]
  Activity: 51.56%
[29]
  logP at 24 h: 1.94

## O=C(CN1CCN(Cc2ccccc2)CC1)Nc1nc2ccccc2[nH]1
[1]
  Activity: 2.47%
[2]
  Activity: 5.66%
[3]
  Activity: 11.45%
[4]
  Activity: 6.85%
[5]
  Activity: 47%
[6]
  Activity: 3.2%
[7]
  Activity: 2.32%
[8]
  Activity: 1.26%
[9]
  Activity: 33.3%
[10]
  Activity: 2.9%
[11]
  Activity: 3.4%
[12]
  Time: 0.5 h
[13]
  Activity: 6.28%
[14]
  Activity: 1.67%
[15]
  Activity: 8.65%
[16]
  Activity: 0.47%
[17]
  Activity: 0.9%
[18]
  Activity: 63.9%
[19]
  Activity: 2.72%
[20]
  Activity: 0.83%
[21]
  Activity: 10.5%
[22]
  IC50: 134.71 µg/mL (≈ 386 µM)
[23]
  Activity: 52.6%
[24]
  Tmax: 2.5 h
[25]
  Activity: 22.1%
[26]
  Activity: 5.58%
[27]
  Activity: 3.13%
[28]
  Activity: 35.52%
[29]
  logP at 24 h: 1.97

## COc1ccccc1N1CCN(CC(=O)Nc2nc3ccccc3[nH]2)CC1
[1]
  Activity: 2.1%
[2]
  Activity: 4.53%
[3]
  Activity: 11.02%
[4]
  Activity: 9.48%
[5]
  Activity: 43.2%
[6]
  Activity: 4.77%
[7]
  Activity: 1.7%
[8]
  Activity: 0%
[9]
  Activity: 35.7%
[10]
  Activity: 1.73%
[11]
  Activity: 4.2%
[12]
  Time: 0.5 h
[13]
  Activity: 10.8%
[14]
  Activity: 1.27%
[15]
  Activity: 16.5%
[16]
  Activity: 0%
[17]
  Activity: 0.9%
[18]
  Activity: 64.5%
[19]
  Activity: 2.5%
[20]
  Activity: 0%
[21]
  Activity: 7.35%
[22]
  IC50: 132.65 µg/mL (≈ 363 µM)
[23]
  Activity: 55.2%
[24]
  Tmax: 2.5 h
[25]
  Activity: 21.3%
[26]
  Activity: 5.37%
[27]
  Activity: 4.1%
[28]
  Activity: 49.92%
[29]
  logP at 24 h: 0.97
